Laboratory results published in patent US20070060544A1, “4-Nitro-2-[(4'-methoxy)-phenoxy]-methanesulfonanilide derivatives and their pharmaceutical use” (priority 2002, published 2007).

Key:
[1] = test system: carrageenin-induced paw inflammation; experiment: paw inflammation induced by carrageenin in mice; assay type: in vivo; conditions: for Paw Swelling mm (M ± SD) at 3 hours / Paw Swelling mm (M ± SD) at 6 hours / anti-inflammatory effects compared with nimesulide (in words): mice; for Paw Swelling mm (M ± SD) at 3 hours / Paw Swelling mm (M ± SD) at 6 hours: orally administered; for Paw Swelling mm (M ± SD) at 3 hours: 0.243 mM/Kg; for Paw Swelling mm (M ± SD) at 6 hours: 0.485 mM/Kg; for anti-inflammatory effects relative to nimesulide (times stronger): 0.243 mM/kg vs nimesulide 0.243 mM/kg; for Paw Swelling mm (M ± SD) at 3 hours / anti-inflammatory effects relative to nimesulide (times stronger): at 3 hours; for anti-inflammatory effects compared with nimesulide (in words): oral
[2] = test system: acetate-induced body twisting; experiment: acetate-induced body twisting in mice (analgesic effect); conditions: for analgesic effects compared with nimesulide (in words): oral
[3] = acute oral toxicity in mice; conditions: orally administered
[4] = orally administered, 0.485 mM/Kg
[5] = orally administered, 0.97 mM/Kg

CS(=O)(=O)Nc1ccc([N+](=O)[O-])cc1Oc1ccccc1 [Nimesulide, nimesulide, reference compound]
Paw Swelling mm (M ± SD) at 3 hours [1]: 2.10 ± 1.39 mm | Paw Swelling mm (M ± SD) at 6 hours [1]: 2.58 ± 1.20 mm | No. of body-twisting (M ± SD) at 3 hours [2, 4]: 11.1 ± 9.7 | No. of body-twistings (M ± SD) at 1 hour [2, 5]: 14.8 ± 11.7 | No. of body-twisting (M ± SD) at 6 hours ([2]; orally administered, 0.97 (head: mg/Kg), at 6 hours): 21.00 ± 19.09

COc1ccc(Oc2cc([N+](=O)[O-])ccc2NS(C)(=O)=O)cc1.C[C@H]1CC[C@H](N)CC1 [S9, 4-nitro-2-[(4′-methoxy)-phenoxy]-methanesulfonyl aniline, trans-4-methyl-cyclohexylamine salt]
anti-inflammatory effects relative to nimesulide (times stronger) [1]: 2 times | anti-inflammatory effects compared with nimesulide (in words) [1]: significantly stronger than that of nimesulide | Paw Swelling mm (M ± SD) at 3 hours [1]: 1.18 ± 0.65 mm | LD50 value (95% C.L.) [3]: 1223.3 mg/kg | toxicity relative to nimesulide (times lower) [3]: about 2 times | analgesic effects compared with nimesulide (in words) [2]: significantly stronger than nimesulide | No. of body-twisting (M ± SD) at 3 hours [2, 4]: 6.7 ± 6.2

4-nitro-2-[(4′-methoxy)-phenoxy]-methanesulfonyl aniline [S6]
anti-inflammatory effects relative to nimesulide (times stronger) [1]: about 4 times | anti-inflammatory effects compared with nimesulide (in words) [1]: significantly stronger than that of nimesulide | Paw Swelling mm (M ± SD) at 3 hours [1]: 0.58 ± 0.67 mm | Paw Swelling mm (M ± SD) at 6 hours [1]: 1.91 ± 0.66 mm | LD50 value (95% C.L.) [3]: 2355.5 mg/kg | toxicity relative to nimesulide (times lower) [3]: about 4 times | analgesic effects compared with nimesulide (in words) [2]: significantly stronger than nimesulide | No. of body-twistings (M ± SD) at 1 hour [2, 4]: 11.4 ± 5.3 | No. of body-twistings (M ± SD) at 1 hour [2, 5]: 10.8 ± 11.4
